Measurements taken from patent US9365604B2, “Oligomer-nucleoside phosphate conjugates” (NEKTAR THERAPEUTICS, priority 2007, dated 2016).
Blank lines part the entries; values can stand above or below the compound they belong to.

Columns and labels:
MCF7 = assay: Sulforhodamine B (SRB) growth inhibition assay; assay type: cell-based, Human; settings: for ratio vs flox (GI50) MCF7: GI50 of conjugate vs floxuridine; for GI50: SRB assay, cells exposed for 24 h, read-out: GI50 values (μM) MCF7
Method: (§1) In Vitro Screening of PEG-Gemcitabine Monophosphate in Selected Human Cancer Cell Lines
(§2) The aim was to determine the GI50 values for PEG-floxuridine conjugates against a panel of cell lines, and based on previous data from Xenograft studies. […] The test articles were solubilized in dimethylsulfoxide and were tested at four different molar (M) concentrations; 10^−4, 10^−5, 10^−6, M. GI50 (the concentration needed to reduce the growth of treated cells to half that of untreated control cells) was calculated for each condition ([(Ti−Tz)/(C-Tz)]×100=50, where Ti, Tz, and C refer to absorbance values obtained from each tested concentration, time zero, and control treatment, respectively).
as §2, with “The objective” for “The aim”, “the IC50” for “the GI50”, “for PEG-gemcitabine” for “for PEG-floxuridine”, “in dimethyl sulfoxide” for “in dimethylsulfoxide”, “10^−6, 10^−7” for “10^−6,”, “condition ([(Ti−Tz)/(C−Tz)]×100=50,” for “condition ([(Ti−Tz)/(C-Tz)]×100=50,”

HT29 = assay: Sulforhodamine B (SRB) growth inhibition assay; assay type: cell-based, Human; settings: for ratio vs flox (GI50) HT29: GI50 of conjugate vs floxuridine; for GI50: SRB assay, cells exposed for 24 h, read-out: GI50 values (μM) HT29
Method: as §1, §2
as §2, with “The objective” for “The aim”, “the IC50” for “the GI50”, “for PEG-gemcitabine” for “for PEG-floxuridine”, “in dimethyl sulfoxide” for “in dimethylsulfoxide”, “10^−6, 10^−7” for “10^−6,”, “condition ([(Ti−Tz)/(C−Tz)]×100=50,” for “condition ([(Ti−Tz)/(C-Tz)]×100=50,”

A2780 = assay: Sulforhodamine B (SRB) growth inhibition assay; assay type: cell-based, Human; settings: for ratio vs flox (GI50) A2780: GI50 of conjugate vs floxuridine; for GI50: SRB assay, cells exposed for 24 h, read-out: GI50 values (μM) A2780
Method: as §1, §2
as §2, with “The objective” for “The aim”, “the IC50” for “the GI50”, “for PEG-gemcitabine” for “for PEG-floxuridine”, “in dimethyl sulfoxide” for “in dimethylsulfoxide”, “10^−6, 10^−7” for “10^−6,”, “condition ([(Ti−Tz)/(C−Tz)]×100=50,” for “condition ([(Ti−Tz)/(C-Tz)]×100=50,”

Hop62 = assay: Sulforhodamine B (SRB) growth inhibition assay; assay type: cell-based, Human; settings: for ratio vs flox (GI50) Hop62: GI50 of conjugate vs floxuridine; for GI50: SRB assay, cells exposed for 24 h, read-out: GI50 values (μM) Hop62
Method: as §1, §2
as §2, with “The objective” for “The aim”, “the IC50” for “the GI50”, “for PEG-gemcitabine” for “for PEG-floxuridine”, “in dimethyl sulfoxide” for “in dimethylsulfoxide”, “10^−6, 10^−7” for “10^−6,”, “condition ([(Ti−Tz)/(C−Tz)]×100=50,” for “condition ([(Ti−Tz)/(C-Tz)]×100=50,”

COLO205 = assay: Sulforhodamine B (SRB) growth inhibition assay; assay type: cell-based, Human; settings: COLO205; SRB assay, cells exposed for 24 h; read-out: GI50 values (μM) COLO205
Method: as §1, §2
as §2, with “The objective” for “The aim”, “the IC50” for “the GI50”, “for PEG-gemcitabine” for “for PEG-floxuridine”, “in dimethyl sulfoxide” for “in dimethylsulfoxide”, “10^−6, 10^−7” for “10^−6,”, “condition ([(Ti−Tz)/(C−Tz)]×100=50,” for “condition ([(Ti−Tz)/(C-Tz)]×100=50,”

HCT15 = assay: Sulforhodamine B (SRB) growth inhibition assay; assay type: cell-based, Human; settings: SRB assay, cells exposed for 24 h, read-out: GI50 values (μM) HCT15
Method: as §1, §2
as §2, with “The objective” for “The aim”, “the IC50” for “the GI50”, “for PEG-gemcitabine” for “for PEG-floxuridine”, “in dimethyl sulfoxide” for “in dimethylsulfoxide”, “10^−6, 10^−7” for “10^−6,”, “condition ([(Ti−Tz)/(C−Tz)]×100=50,” for “condition ([(Ti−Tz)/(C-Tz)]×100=50,”

NCI/ADR-RES = assay: Sulforhodamine B (SRB) growth inhibition assay; assay type: cell-based, Human; settings: cells exposed for 24 h, read-out: GI50 values (μM) NCI/ADR-RES
Method: as §1
(§3) The aim was to determine the GI50 values for PEG-floxuridine conjugates against a panel of cell lines, and based on previous data from Xenograft studies. The cells were exposed for 24 h, and cell viability assessed by using the Sulphorhodamine (SRB) assay. The test articles were solubilized in dimethylsulfoxide and were tested at four different molar (M) concentrations; 10^−4, 10^−5, 10^−6, M. GI50 (the concentration needed to reduce the growth of treated cells to half that of untreated control cells) was calculated for each condition ([(Ti−Tz)/(C-Tz)]×100=50, where Ti, Tz, and C refer to absorbance values obtained from each tested concentration, time zero, and control treatment, respectively).
as §3, with “The objective” for “The aim”, “the IC50” for “the GI50”, “for PEG-gemcitabine” for “for PEG-floxuridine”, “in dimethyl sulfoxide” for “in dimethylsulfoxide”, “10^−6, 10^−7” for “10^−6,”, “condition ([(Ti−Tz)/(C−Tz)]×100=50,” for “condition ([(Ti−Tz)/(C-Tz)]×100=50,”

MIA PaCa-2 = assay: In vitro cytotoxicity assay (CellTiter-Glo); assay type: cell-based
Method: (§4) The objective of these studies were to determine the IC50 values for PEG-floxuridine conjugates against floxuridine-resistant cell lines based on data from previous Xenograft studies. The cells were exposed for 72 h, and cell viability assessed by using the CellTiter-Glo assay.
(§5) The objective of these studies was to determine the IC50 values for PEG-gemcitabine conjugates against gemcitabine-resistant cell lines based on data from previous Xenograft studies. The cells were exposed for 72 h, and cell viability assessed by using the CellTiter-Glo assay.

HCT-116 = assay: In vitro cytotoxicity assay (CellTiter-Glo); assay type: cell-based
Method: as §4, §5

HT-29 = assay: In vitro cytotoxicity assay (CellTiter-Glo); assay type: cell-based
Method: as §4, §5

DU145 = assay: Sulforhodamine B (SRB) growth inhibition assay; assay type: cell-based, Human; settings: for ratio vs flox (GI50) DU145: GI50 of conjugate vs floxuridine; for GI50: SRB assay, cells exposed for 24 h, read-out: GI50 values (μM) DU145
Method: as §2
as §2, with “The objective” for “The aim”, “the IC50” for “the GI50”, “for PEG-gemcitabine” for “for PEG-floxuridine”, “in dimethyl sulfoxide” for “in dimethylsulfoxide”, “10^−6, 10^−7” for “10^−6,”, “condition ([(Ti−Tz)/(C−Tz)]×100=50,” for “condition ([(Ti−Tz)/(C-Tz)]×100=50,”

CAKI-1 = assay: In vitro cytotoxicity assay (CellTiter-Glo); assay type: cell-based
PANC-1 = settings: Zajchowski et al. 2005; cited from earlier work
[1] = Bi-directional permeability in Caco-2 cells; settings: human
Text: (§6) Bi-Directional Permeability of PEG-Floxuridine Conjugates in Caco-2 and MDCK Cells

in vitro [2] = settings: human, Caco-2
Text: as §6

[3] = Bi-directional permeability in MDCK cells; settings: dog
Text: as §6

in vitro [4] = settings: dog, MDCK
Text: as §6

- ratio vs flox (GI50) MCF7 (MCF7): 0.7
- GI50 (MCF7): 0.11 µM
- ratio vs flox (GI50) HT29 (HT29): 4
- GI50 (HT29): > 100 µM
- ratio vs flox (GI50) A2780 (A2780): 32
- GI50 (A2780): 2.1 µM
- GI50 (COLO205): 1.8 µM
- GI50 (HCT15): 32 µM
- Papp A -> B (MDCK cells): <0.06 10^−6 cm/s
- Papp B -> A (MDCK cells): <0.07 10^−6 cm/s
- Significant efflux (MDCK cells): No
- percent recovery A -> B (MDCK cells): 98%
- percent recovery B -> A (MDCK cells): 98%
- Papp A -> B (Caco-2 cells): <0.19 10^−6 cm/s
- Papp B -> A (Caco-2 cells): <0.25 10^−6 cm/s
- Significant efflux (Caco-2 cells): No
- percent recovery A -> B (Caco-2 cells): 96%
- percent recovery B -> A (Caco-2 cells): 94%
- ratio vs flox (GI50) DU145 (DU145): 0.005
- GI50 (DU145): 0.12 µM
Compound: COCCOCCOCCOP(=O)(O)OC[C@H]1O[C@@H](n2cc(F)c(=O)[nH]c2=O)C[C@@H]1O [Floxuridine Mono (mPEG3), 5′-floxuridine methoxy tri(ethylene glycol) phosphate]
- ratio vs flox (GI50) Hop62 (Hop62): 417
- GI50 (Hop62): > 100 µM
- GI50 (NCI/ADR-RES): < 0.1 µM
- Ratio vs floxuridine (IC50) MIA PaCa-2 (MIA PaCa-2): 1
- IC50 (MIA PaCa-2; 72 h exposure, CellTiter-Glo): 64 nM
- Ratio vs floxuridine (IC50) HCT-116 (HCT-116): 2
- IC50 (HCT-116; 72 h exposure, CellTiter-Glo): 56 nM
- Ratio vs floxuridine (IC50) HT-29 (HT-29): 1
- IC50 (HT-29; 72 h exposure, CellTiter-Glo): 87 nM
- Ratio vs floxuridine (IC50) CAKI-1 (CAKI-1): 1
- IC50 (CAKI-1; 72 h exposure, CellTiter-Glo): 145 nM

Compound: Nc1ccn([C@@H]2S[C@H](CO)[C@@H](O)[C@@H]2F)c(=O)n1 [4′-thio-FAC]
- resistance of PANC-1 in vitro (shown previously) (PANC-1): resistant

- Significant efflux (MDCK cells): No
- permeability through MDCK monolayers (in words) (MDCK cells): relatively poor permeability
- Papp B-A/Papp A-B (MDCK cells; dog): 0.9
- recovery ([1]; Caco-2, percent recovery A -> B): 110%
- recovery ([1]; Caco-2, percent recovery B -> A): 99%
- Absorption potential (Caco-2 cells): High
- Significant efflux (Caco-2 cells): Yes
- permeability across Caco-2 monolayers (in words) (Caco-2 cells): high permeability
- Papp B-A/Papp A-B (Caco-2 cells; human): 3.9
- Papp A→B (in vitro [2]): 2.22 ×10⁻⁶ cm/s
- Papp B→A (in vitro [2]): 8.71 ×10⁻⁶ cm/s
- efflux ratio (in vitro [2]): 3.9
- recovery ([3]; percent recovery A -> B): 104%
- recovery ([3]; percent recovery B -> A): 99%
- Papp A→B (in vitro [4]): 0.16 ×10⁻⁶ cm/s
- Papp B→A (in vitro [4]): 0.14 ×10⁻⁶ cm/s
- efflux ratio (in vitro [4]): 0.9
Compound: CCCCCOC(=O)Nc1nc(=O)n([C@@H]2O[C@H](C)[C@@H](O)[C@H]2O)cc1F [Capecitabine]

Compound: COCCOCCOCCOCCOCCOCCOCCOP(=O)(OCCOCCOCCOCCOCCOCCOCCOC)OC[C@H]1O[C@@H](n2cc(F)c(=O)[nH]c2=O)C[C@@H]1O [Floxuridine Di (mPEG7), 5′-floxuridine di-methoxy hepta(ethylene glycol) phosphate]
- ratio vs flox (GI50) MCF7 (MCF7): 667
- GI50 (MCF7): > 100 µM
- ratio vs flox (GI50) HT29 (HT29): 4
- GI50 (HT29): > 100 µM
- ratio vs flox (GI50) A2780 (A2780): 1538
- GI50 (A2780): > 100 µM
- ratio vs flox (GI50) Hop62 (Hop62): 417
- GI50 (Hop62): > 100 µM
- ratio vs flox (GI50) DU145 (DU145): 4
- GI50 (DU145): > 100 µM
